Residue numbers refer to the chain shown, from its start. Marks after values point to notes of the source that are not given here.

The values below come from publication PMC4113456, “Atypical Signaling and Functional Desensitization Response of MAS Receptor to Peptide Ligands” (PLoS ONE, 2014).

In one data set the target is T1, MAS M244A mutant (Homo sapiens, UniProt P04201, M244A).
T1 construct: expressed in transfected cells
T1 sequence (P04201 1-325 M244A): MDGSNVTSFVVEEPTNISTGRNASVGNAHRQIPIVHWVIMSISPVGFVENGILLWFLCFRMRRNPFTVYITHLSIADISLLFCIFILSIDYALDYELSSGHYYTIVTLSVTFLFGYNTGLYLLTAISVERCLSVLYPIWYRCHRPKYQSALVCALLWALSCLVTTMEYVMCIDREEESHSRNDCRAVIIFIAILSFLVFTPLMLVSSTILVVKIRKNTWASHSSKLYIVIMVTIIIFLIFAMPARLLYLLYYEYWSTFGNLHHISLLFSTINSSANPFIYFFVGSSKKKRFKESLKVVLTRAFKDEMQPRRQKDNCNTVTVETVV
The data set is described as follows: IP1 assay, M244A MAS mutant stable cell line. Format: cell-based. From the text: The WT MAS expression construct was synthesized with an N-terminal myc-tag (Figure 1) by GenScript (Piscataway, NJ). The myc-tagged WT MAS from this vector was initially sub-cloned into pcDNA3.1 and later sub-cloned into tetracycline/doxycycline inducible vector pcDNA 5/TO (Life Technologies, Grand Island, NY). Four different ligand binding MAS mutants (F112A, I191A, M244A and T270A) were created using site-directed mutagenesis of WT myc-tagged MAS in pcDNA3.1 or pcDNA 5/TO vector background (Agilent Technologies, Santa Clara, CA). […]
IP1 levels in the cells were measured using the IP-One Tb kit (Cisbio US, Bedford, MA). […] Time-resolved ratiometric fluorescence emission measurements at 665 nm and 620 nm were taken after excitation at 343 nm on FlexStation 3 instrument. […]
(§1) For re-stimulation assays, the data is expressed as the percentage of maximum agonist stimulation to allow for ready comparison between individual experiments. For the IP1 assay, a standard curve was generated using the 4-Parameter logistic equation fit of the HTRF readings of IP1 standards using the SoftMax Pro software. […] In the luciferase assay, the luminescence measurements (RLU) are presented as a ratio of firefly to renilla luciferase activity. […]

Another data set concerns the target T2, untagged WT MAS (Homo sapiens, UniProt P04201).
T2 construct: expressed in transfected cells
T2 sequence (P04201 1-325): T1 sequence (P04201 1-325 M244A) with A244M
Put plainly: Calcium assay, untagged WT MAS inducible HEK293 stable cell line. The data set is classed as cell-based.

The next data set deals with T3, MAS T270A mutant (Homo sapiens, UniProt P04201, T270A).
T3 construct: expressed in transfected cells
T3 sequence (P04201 1-325 T270A): T1 sequence (P04201 1-325 M244A) with A244M, T270A
Put plainly: IP1 assay, T270A MAS mutant stable cell line. The data set is classed as cell-based.
Description: The WT MAS expression construct was synthesized with an N-terminal myc-tag (Figure 1) by GenScript (Piscataway, NJ). The myc-tagged WT MAS from this vector was initially sub-cloned into pcDNA3.1 and later sub-cloned into tetracycline/doxycycline inducible vector pcDNA 5/TO (Life Technologies, Grand Island, NY). Four different ligand binding MAS mutants (F112A, I191A, M244A and T270A) were created using site-directed mutagenesis of WT myc-tagged MAS in pcDNA3.1 or pcDNA 5/TO vector background (Agilent Technologies, Santa Clara, CA). WT MAS receptor without an epitope tag was constructed by replacing the 5′ portion of the myc-tagged WT MAS in pcDNA 5/TO by untagged MAS sequence from a plasmid construct provided as a gift from Arena Pharmaceuticals, Inc. (San Diego, CA). The sequences of all WT and mutant MAS genes in plasmid constructs were verified by capillary DNA sequencing at the Genomics Core at Lerner Research Institute (Cleveland, OH).
IP1 levels in the cells were measured using the IP-One Tb kit (Cisbio US, Bedford, MA). For the assay, cells were seeded onto a 384-well low volume white cell culture plate at a density of 25,000 cells/well in 20 µl of induction or complete medium. In the IP1 assays the cell density of 25,000 cells/well was consistently maintained to minimize variability between independent experiments. The cells were maintained in a cell culture incubator for 26–28 h. […] Time-resolved ratiometric fluorescence emission measurements at 665 nm and 620 nm were taken after excitation at 343 nm on FlexStation 3 instrument. […]
as §1

For data set [1], the target named is T4, MAS (Homo sapiens, UniProt P04201).
T4 construct: expressed in transfected cells
T4 sequence (P04201 1-325): T1 sequence (P04201 1-325 M244A) with A244M
The data set is described as follows: FLIPR calcium assay, induced myc-tagged WT MAS HEK293 stable cell line. Format: cell-based.
Description: The assay was performed using FLIPR Calcium 5 assay kit (Molecular Devices, Sunnyvale, CA). For calcium measurements, cells at a density of 125,000 cells/well in 100 µl medium were seeded onto a 96-well clear bottom black cell culture plate that was pre-coated with poly-L-lysine. In the calcium assays the cell density of 125,000 cells/well was consistently maintained to minimize variability between independent experiments. The cells were seeded in induction media to induce MAS expression or in complete media for negative controls. The plate was maintained in a cell culture incubator for 26–28 h. The cells were then serum starved for 2 h by replacing the medium with 100 µl of serum free DMEM. In the case of pre-treatment with pan-inhibitor of G protein signaling, BIM-46187, the cells were initially serum starved for 1 h by replacing the medium with 50 µl of serum free DMEM. After 1 h, 50 µl of BIM-46187 was added to the cells to a final concentration of 25 µM and treated for another 1 h. Following serum starvation, 100 µl of calcium sensitive dye along with 2x (2.5 mM final concentration) probenecid (Life Technologies, Grand Island, NY) was added to the cells. During this step, AR-inverse agonist or BIM-46187 was also added at desired concentrations to the calcium dye preparation in case of experiments where cells were pre-treated with these inhibitors. The cells were maintained for one hour in the cell culture incubator. Following this, the 96-well plate containing cells loaded with calcium dye and a U-bottom 96-well plate containing ligands at 5x the desired final concentration in D-PBS (1.47 mM KH2PO4, 138 mM NaCl, 2.67 mM KCl, 8.1 mM Na2HPO4, pH 7.3) were allowed to equilibrate for 15 min on a FlexStation 3 instrument (Molecular Devices, Sunnyvale, CA) at 37°C. The plates were further equilibrated on the instrument for 5 min with the lids removed from the plates. The instrument was programmed in FLEX mode to add ligands (50 µl at 5x concentration) to the cells and to monitor the fluorescence before and after adding the ligands. In re-stimulation and antagonism assays the instrument is programmed to add 35 µl of first ligand followed by addition of the second ligand (35 µl) after 10 min. […] Therefore, when using 5x ligand stock the maximum AR-agonist concentration that could be tested was 10 µM.
In the calcium assays, the maximum response and minimum response values in relative fluorescence units (RFU) were extracted by subtracting the corresponding baseline value wherein baseline is defined as the average fluorescence of all time points before addition of ligand.
The kinetic parameter t1/2 (time taken to reach half of the maximum response) was determined using SoftMax Pro software supplied with the FlexStation 3 instrument (Molecular Devices, Sunnyvale, CA).
For re-stimulation assays, the data is expressed as the percentage of maximum agonist stimulation to allow for ready comparison between individual experiments. […] For all the assays, the EC50 and IC50 values were estimated by fitting the data to a three parameter dose response using GraphPad Prism software (GraphPad, La Jolla, CA).

The subject of data set [2] is MAS. More on the design: method as in ref [9] (a number printed in a supplementary file, which may have a reference list of its own: not looked up in the article's list). The following applies: Rat MAS; ref [9]; read-out: EC50 (IP1 assay); cited from earlier work.
In data set [3] the target is T4, MAS. The data set is described as follows: HTRF IP1 assay, induced myc-tagged WT MAS HEK293 stable cell line. The data set is classed as cell-based.
Description: IP1 levels in the cells were measured using the IP-One Tb kit (Cisbio US, Bedford, MA). For the assay, cells were seeded onto a 384-well low volume white cell culture plate at a density of 25,000 cells/well in 20 µl of induction or complete medium. In the IP1 assays the cell density of 25,000 cells/well was consistently maintained to minimize variability between independent experiments. The cells were maintained in a cell culture incubator for 26–28 h. The cells were then serum starved for 2 h by replacing the medium with 7 µl of serum free DMEM/F-12. During this step, 7 µl of serum free DMEM/F-12 was also added to the wells to which IP1 standards would be subsequently added. […] The cells were then placed in the cell culture incubator for 4 h. Later, 3 µl each of d2-labeled IP1 and anti-IP1 cryptate Tb conjugated antibody diluted in lysis buffer was added sequentially to all the wells and the plate was incubated overnight in the dark at room temperature. Time-resolved ratiometric fluorescence emission measurements at 665 nm and 620 nm were taken after excitation at 343 nm on FlexStation 3 instrument.
For the IP1 assay, a standard curve was generated using the 4-Parameter logistic equation fit of the HTRF readings of IP1 standards using the SoftMax Pro software. The IP1 concentrations in the experiments were extrapolated based on the standard curve parameters. […] For all the assays, the EC50 and IC50 values were estimated by fitting the data to a three parameter dose response using GraphPad Prism software (GraphPad, La Jolla, CA).
[4] abbreviates: WT MAS, induced cells, inhibition of constitutive activity.

Description for untagged WT MAS: The assay was performed using FLIPR Calcium 5 assay kit (Molecular Devices, Sunnyvale, CA). For calcium measurements, cells at a density of 125,000 cells/well in 100 µl medium were seeded onto a 96-well clear bottom black cell culture plate that was pre-coated with poly-L-lysine. In the calcium assays the cell density of 125,000 cells/well was consistently maintained to minimize variability between independent experiments. The cells were seeded in induction media to induce MAS expression or in complete media for negative controls. The plate was maintained in a cell culture incubator for 26–28 h. The cells were then serum starved for 2 h by replacing the medium with 100 µl of serum free DMEM. In the case of pre-treatment with pan-inhibitor of G protein signaling, BIM-46187, the cells were initially serum starved for 1 h by replacing the medium with 50 µl of serum free DMEM. After 1 h, 50 µl of BIM-46187 was added to the cells to a final concentration of 25 µM and treated for another 1 h. Following serum starvation, 100 µl of calcium sensitive dye along with 2x (2.5 mM final concentration) probenecid (Life Technologies, Grand Island, NY) was added to the cells. During this step, AR-inverse agonist or BIM-46187 was also added at desired concentrations to the calcium dye preparation in case of experiments where cells were pre-treated with these inhibitors. The cells were maintained for one hour in the cell culture incubator. Following this, the 96-well plate containing cells loaded with calcium dye and a U-bottom 96-well plate containing ligands at 5x the desired final concentration in D-PBS (1.47 mM KH2PO4, 138 mM NaCl, 2.67 mM KCl, 8.1 mM Na2HPO4, pH 7.3) were allowed to equilibrate for 15 min on a FlexStation 3 instrument (Molecular Devices, Sunnyvale, CA) at 37°C. The plates were further equilibrated on the instrument for 5 min with the lids removed from the plates. The instrument was programmed in FLEX mode to add ligands (50 µl at 5x concentration) to the cells and to monitor the fluorescence before and after adding the ligands. […]

As to `COc1cc([N+](=O)[O-])ccc1S(=O)(=O)N1CC(CN2CCN(c3ccccn3)CC2)C(c2cccc(F)c2)C1` (centres unmarked) [AR-agonist], the “EC50, IP1 assay” value at MAS M244A mutant and at MAS T270A mutant was “cbd” each time. Also, the EC50 is 1200 ± 100 nM on untagged WT MAS (read-out: EC50, calcium flux); 1500 ± 300 nM at MAS [1] (WT MAS, induced cells); 170 nM with MAS [2]; 1300 ± 300 nM on MAS [3] (WT MAS, induced cells). Further, on MAS [1] (WT MAS), the “t1/2 (time taken to reach half of the maximal calcium response), Calcium assay” value was determined as 31.2 ± 2.1 s. In addition, at MAS [1] (WT construct), the “Fold over WT, EC50 Calcium assay” value is given as 1. On MAS [3] (WT construct), the “Fold over WT, EC50 IP1 assay” value amounted to 1.
Turning to `C=CCCN1CCC2(CC1)CN(C(=O)c1c(F)cccc1F)c1ccc(Cl)cc12` [AR-inverse], at MAS M244A mutant, the “IC50, IP1 assay” value is “cbd”. Also, the IC50 was 500 ± 400 nM on untagged WT MAS (read-out: IC50, calcium flux); 1700 ± 30 nM against MAS T270A mutant; 900 ± 600 nM on MAS [1] (setting [4]); 700 ± 100 nM against MAS [3] (setting [4]). In addition, the “Fold over WT, IC50 IP1 assay” value on MAS T270A mutant is given as 2.5**; at MAS [3] (WT construct), 1. Moreover, in the data set on MAS [2], the EC50 is 348 nM.

The EC50 is the concentration that produces a half-maximal response. For orientation: IC50 means the point on the concentration scale where inhibition reaches its midpoint.
